Laboratory results from PMC3608651, “A Broad Profile of Co-Dominant Epitopes Shapes the Peripheral Mycobacterium tuberculosis Specific CD8+ T-Cell Immune Response in South African Patients with Active Tuberculosis” (PLoS ONE, 2013).
Where two headings read alike, the source gives them in different places.

Legend:
Format in all cases: binding
HLA-A*30:02 [1] = molecular target: T1, HLA-A*30:02 (Homo sapiens, UniProt P04439, D101N/D140H/D185E/E176R/F33S/G80R/H175R/K168Q/Q94H/R138E/R41S/V100E); conditions: duplicated experiments, positive binder >40%
HLA-A*68:01 [2] = molecular target: T2, HLA-A*68:01 (Homo sapiens, UniProt P04439, A269V/D185E/E176V/E277Q/E87N/F33Y/G231S/I121M/I166T/I218V/L180W/L300P/L318F/N151K/P208A/P217A/Q86R/R169H/T345S); conditions: time points 0-8 h
HLA-A*30:02 [3] = molecular target: T1, HLA-A*30:02; conditions: time points 0-8 h
HLA-A*30:02 [4] = molecular target: T1, HLA-A*30:02
HLA-A*02:01 [5] = molecular target: T3, HLA-A*02:01 (Homo sapiens, UniProt P04439, D140Y/D185E/D98H/E176V/E277Q/G131W/G231S/I119V/I121R/I166T/I218V/L300P/L318F/N151K/N90K/P208A/P217A/Q86G/Q94H/R138H/R169H/T345S); conditions: plate-bound monomer 0.5 µg/ml, duplicated experiments, positive binder >40%
HLA-A*24:02 = HLA-A*24:02 (Homo sapiens, UniProt P04439, D101N/D140Y/D185E/E176V/E190D/F33S/G103R/G107R/I119L/I121M/I306V/K335N/L105A/L180Q/L300P/N151K/N90K/Q86E/Q94H/R106L/R138H/R89G/T104I/T345S/V100E/W191G/Y123F); conditions: duplicated experiments, positive binder >40%
HLA-A*68:01 [6] = molecular target: T2, HLA-A*68:01
HLA-B*58:01 [7] = molecular target: T4, HLA-B*58:01 (Homo sapiens, UniProt P01889, A329T/C349S/D201E/D98Y/E176V/E187L/E204Q/E69T/G107R/I218V/I90N/K202T/L105A/L119I/N104I/N87E/Q89R/Q94S/R106L/R155S/R180L/R86G/S101N/S121R/S35A/S48A/T118I/V127L/V306I/V36M/Y140S/Y91M); conditions: duplicated experiments, positive binder >40%
HLA-C*07:01 = HLA-C*07:01 (Homo sapiens, UniProt P10321, K90N/S123Y); conditions: duplicated experiments, positive binder >40%
HLA-A*30:01 = HLA-A*30:01 (Homo sapiens, UniProt P04439, D140H/D185E/E176W/F33S/G80R/H175R/K168Q/R138E/R41S); conditions: duplicated experiments, positive binder >40%
HLA-A*68:01 [8] = molecular target: T2, HLA-A*68:01; conditions: duplicated experiments, positive binder >40%
HLA-B*07:02 = HLA-B*07:02 (Homo sapiens, UniProt P01889); conditions: percent relative the binding of positive control peptide […]; duplicated experiments; positive binder >40%
HLA-A*02:01 [9] = molecular target: T3, HLA-A*02:01; conditions: peptide quantity for 50% binding saturation
HLA-A*02:01 [10] = molecular target: T3, HLA-A*02:01; conditions: time points 0-8 h; time when 50% of peptide has dissociated
HLA-B*58:01 [11] = molecular target: T4, HLA-B*58:01; conditions: time points 0-8 h
HLA-B*58:01 [12] = molecular target: T4, HLA-B*58:01
[13] = percent relative the binding of positive control peptide […]
[14] = percent relative the binding of positive control peptide KIQNFRVYY
[15] = peptide titrated 10−4 to 10−9 M
[16] = percent relative the binding of positive control peptide FLPSDFFPSV
[17] = percent relative the binding of positive control peptide RYLKDQQLL
[18] = percent relative the binding of positive control peptide IAMESIVIW
[19] = percent relative the binding of positive control peptide KYFDEHYEY
[20] = percent relative the binding of positive control peptide KTKDIVNGL
[21] = percent relative the binding of positive control peptide KTGGPIYKR

AVFNFPPNG
Bind A*30:02 (HLA-A*30:02 [1]; [13]): 101%
O-rate A*68:01 (t1/2) (HLA-A*68:01 [2]): 0.2 h
O-rate A*30:02 (t1/2) (HLA-A*30:02 [3]): 0.3 h
Aff A*30:02 (ED50) (HLA-A*30:02 [4]): 3 µM
Bind A*02:01 (HLA-A*02:01 [5]; [13]): 69%
Bind A*24:02 (HLA-A*24:02; [13]): 23%
Aff A*68:01 (ED50) (HLA-A*68:01 [6]): 8E -09 M
Bind B*58:01 (HLA-B*58:01 [7]; [13]): 33%
Bind C*07:01 (HLA-C*07:01; [13]): 1%
Bind A*30:01 (HLA-A*30:01; [13]): 21%
Bind A*68:01 (HLA-A*68:01 [8]; [13]): 81%
Bind B*07:02 (HLA-B*07:02): 0%

NLARTISEA [Rv3875_71–79]
Bind A*30:02 (HLA-A*30:02 [1]; [14]): 17%
Aff A*02:01 (ED50) (HLA-A*02:01 [9]; [15]): 0.04 µM
Bind A*02:01 (HLA-A*02:01 [5]; [16]): 72%
Bind A*24:02 (HLA-A*24:02; [17]): 11%
Bind B*58:01 (HLA-B*58:01 [7]; [18]): 21%
Bind C*07:01 (HLA-C*07:01; [19]): 12%
O-rate A*02:01 (t1/2) (HLA-A*02:01 [10]): 2.3 h
Bind A*30:01 (HLA-A*30:01; [20]): 15%
Bind A*68:01 (HLA-A*68:01 [8]; [21]): 9%
Bind B*07:02 (HLA-B*07:02): 10%

LLDEGKQSL [Rv3875_28–36]
Bind A*30:02 (HLA-A*30:02 [1]; [14]): 0%
Aff A*02:01 (ED50) (HLA-A*02:01 [9]; [15]): 0.7 µM
Bind A*02:01 (HLA-A*02:01 [5]; [16]): 61%
Bind A*24:02 (HLA-A*24:02; [17]): 0%
Bind B*58:01 (HLA-B*58:01 [7]; [18]): 2%
Bind C*07:01 (HLA-C*07:01; [19]): 19%
O-rate A*02:01 (t1/2) (HLA-A*02:01 [10]): 4.9 h
Bind A*30:01 (HLA-A*30:01; [20]): 20%
Bind A*68:01 (HLA-A*68:01 [8]; [21]): 4%
Bind B*07:02 (HLA-B*07:02): 3%

IQGNVTSIH [Rv3875_18–26]
Bind A*30:02 (HLA-A*30:02 [1]; [14]): 36%
Aff A*02:01 (ED50) (HLA-A*02:01 [9]; [15]): 1 µM
Bind A*02:01 (HLA-A*02:01 [5]; [16]): 51%
Bind A*24:02 (HLA-A*24:02; [17]): 0%
Bind B*58:01 (HLA-B*58:01 [7]; [18]): 7%
Bind C*07:01 (HLA-C*07:01; [19]): 5%
O-rate A*02:01 (t1/2) (HLA-A*02:01 [10]): 0.2 h
Bind A*30:01 (HLA-A*30:01; [20]): 13%
Bind A*68:01 (HLA-A*68:01 [8]; [21]): 17%
Bind B*07:02 (HLA-B*07:02): 3%

ITYQAWQAQ [Rv0288_49–57]
O-rate A*68:01 (t1/2) (HLA-A*68:01 [2]): 1.9 h
O-rate B*58:01 (t1/2) (HLA-B*58:01 [11]): 0.5 h
Aff B*58:01 (ED50) (HLA-B*58:01 [12]): 0.2 µM
Aff A*68:01 (ED50) (HLA-A*68:01 [6]): 9e-06 M
Bind B*58:01 (HLA-B*58:01 [7]; [13]): 78%
Bind C*07:01 (HLA-C*07:01; [13]): 0%
Bind A*68:01 (HLA-A*68:01 [8]; [13]): 56%

HSMSSTHEA [Rv0288_70–78m1]
Bind A*30:02 (HLA-A*30:02 [1]; [13]): 39%
Aff A*02:01 (ED50) (HLA-A*02:01 [9]; […]): 1000 µM
O-rate A*30:02 (t1/2) (HLA-A*30:02 [3]): 0.9 h
Aff A*30:02 (ED50) (HLA-A*30:02 [4]): 0.006 µM
Bind A*02:01 (HLA-A*02:01 [5]; [13]): 45%
O-rate A*02:01 (t1/2) (HLA-A*02:01 [10]): 0.3 h
Bind A*68:01 (HLA-A*68:01 [8]; [13]): 0%

EQAALQSAW [Rv0288_35–43]
O-rate A*68:01 (t1/2) (HLA-A*68:01 [2]): 2.8 h
O-rate B*58:01 (t1/2) (HLA-B*58:01 [11]): 0.8 h
Aff B*58:01 (ED50) (HLA-B*58:01 [12]): 6 µM
Aff A*68:01 (ED50) (HLA-A*68:01 [6]): 1e-05 M
Bind B*58:01 (HLA-B*58:01 [7]; [13]): 79%
Bind C*07:01 (HLA-C*07:01; [13]): 0%
Bind A*68:01 (HLA-A*68:01 [8]; [13]): 47%

ALQNLARTI [Rv3875_68–76]
Bind A*30:02 (HLA-A*30:02 [1]; [14]): 17%
Aff A*02:01 (ED50) (HLA-A*02:01 [9]; [15]): 0.03 µM
Bind A*02:01 (HLA-A*02:01 [5]; [16]): 73%
Bind A*24:02 (HLA-A*24:02; [17]): 0%
Bind B*58:01 (HLA-B*58:01 [7]; [18]): 0%
Bind C*07:01 (HLA-C*07:01; [19]): 0%
O-rate A*02:01 (t1/2) (HLA-A*02:01 [10]): 1.7 h
Bind A*30:01 (HLA-A*30:01; [20]): 0%
Bind A*68:01 (HLA-A*68:01 [8]; [21]): 0%
Bind B*07:02 (HLA-B*07:02): 8%

AVYLLDGLR
Bind A*30:02 (HLA-A*30:02 [1]; [13]): 115%
O-rate A*68:01 (t1/2) (HLA-A*68:01 [2]): 1.1 h
O-rate A*30:02 (t1/2) (HLA-A*30:02 [3]): 1.2 h
Aff A*30:02 (ED50) (HLA-A*30:02 [4]): 0.2 µM
Bind A*02:01 (HLA-A*02:01 [5]; [13]): 24%
Bind A*24:02 (HLA-A*24:02; [13]): 8%
Aff A*68:01 (ED50) (HLA-A*68:01 [6]): 2E -07 M
Bind B*58:01 (HLA-B*58:01 [7]; [13]): 0%
Bind C*07:01 (HLA-C*07:01; [13]): 4%
Bind A*30:01 (HLA-A*30:01; [13]): 1%
Bind A*68:01 (HLA-A*68:01 [8]; [13]): 114%
Bind B*07:02 (HLA-B*07:02): 0%
